The record followed here is patent US8815834B2, “Use of dendrimers to stimulate cell growth” (Centre National de la Recherche Scientifique, priority 2004, dated 2014).

The assay deals with human NK cells. The assay can be described thus: Culture of PBMC with dendrimer and IL2: amplification and phenotype of NK cells. Conditions: in particular at a concentration of 20 μM; FIG. 4B.

Description: Peripheral blood mononuclear cells (PBMC) obtained from a healthy adult human donor by centrifugation over a density gradient (Ficoll-Hypaque, Amersham Pharmacia Biotech, Upsalla, SWEDEN) are cultured in sterile cell culture flasks at a concentration of 1.5 million cells per ml of culture medium of the RPMI 1640 type, 25 mM Hepes/Ultraglutamine 1 (Cambrex Bio Science, Verviers, BELGIUM) supplemented with: • i) 1 mM sodium pyruvate (Invitrogen Corporation, Paisley, UNITED KINGDOM) • ii) 100 μg/ml of streptomycin and 100 U/ml of penicillin (Cambrex Bio Science, Verviers, BELGIUM); • iii) 10% by volume of foetal calf serum (Invitrogen Corporation, Paisley, UNITED KINGDOM) decomplemented for 30 minutes at 56° C. (FCS); • iv) 20 μM of GC1 dendrimer solubilized at a concentration of 2 mM in sterile non-pyrogenic PBS; • v) 200 U/ml of human recombinant IL2 (Sanofi-Synthelabo, Paris, FRANCE) is added to the culture medium thus produced. […]
The PBMCs obtained from a healthy adult human donor are cultured for 15 days with GC1 then counted by total counting of the living cells (Ntot). […]
The NK cells obtained starting with PBMCs from healthy donors cultured under the conditions described previously are counted, at the start of the experiment then at the end of 3.5 weeks of culture. […]

Regarding `O=P(O)(O)CN(CCc1ccc(O)cc1)CP(=O)(O)O` [phenol-azabisphosphonic monomer derived from tyramine], the “Immunostimulant properties on the in vitro amplification of human NK cells” value is “inactive”.
